One may read the IC50 as the point on the concentration scale where inhibition reaches its midpoint.

Drawing on US10221177B2 (HYDRA BIOSCIENCES, INC., priority 2014, dated 2019), this text covers IC50 for 19 compounds.

This assay has as its target human TRPA1 (Homo sapiens (Human), UniProt O75762). Put plainly: In vitro inhibition of human TRPA1, whole cell patch configuration. In kind it is cell-based. Particulars: current activation 10 μM AITC, tested concentrations 320 pM to 3.2 μM, read-out: hTRPA1 IC50. The method in brief: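 Compound antagonism measured from voltage ramps (±100 or ±80 mV, 400 ms, every 4 s from −40 mV), analysed at −80 and 80 mV, or at constant −60 mV. HEPES-buffered NaCl bath, pH 7.4, EGTA or 2 mM Ca2+; temperature set by perfusion, within ±2° C; no junction-potential correction.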

Chain of human TRPA1 (O75762 whole entry, the tested form may be a part): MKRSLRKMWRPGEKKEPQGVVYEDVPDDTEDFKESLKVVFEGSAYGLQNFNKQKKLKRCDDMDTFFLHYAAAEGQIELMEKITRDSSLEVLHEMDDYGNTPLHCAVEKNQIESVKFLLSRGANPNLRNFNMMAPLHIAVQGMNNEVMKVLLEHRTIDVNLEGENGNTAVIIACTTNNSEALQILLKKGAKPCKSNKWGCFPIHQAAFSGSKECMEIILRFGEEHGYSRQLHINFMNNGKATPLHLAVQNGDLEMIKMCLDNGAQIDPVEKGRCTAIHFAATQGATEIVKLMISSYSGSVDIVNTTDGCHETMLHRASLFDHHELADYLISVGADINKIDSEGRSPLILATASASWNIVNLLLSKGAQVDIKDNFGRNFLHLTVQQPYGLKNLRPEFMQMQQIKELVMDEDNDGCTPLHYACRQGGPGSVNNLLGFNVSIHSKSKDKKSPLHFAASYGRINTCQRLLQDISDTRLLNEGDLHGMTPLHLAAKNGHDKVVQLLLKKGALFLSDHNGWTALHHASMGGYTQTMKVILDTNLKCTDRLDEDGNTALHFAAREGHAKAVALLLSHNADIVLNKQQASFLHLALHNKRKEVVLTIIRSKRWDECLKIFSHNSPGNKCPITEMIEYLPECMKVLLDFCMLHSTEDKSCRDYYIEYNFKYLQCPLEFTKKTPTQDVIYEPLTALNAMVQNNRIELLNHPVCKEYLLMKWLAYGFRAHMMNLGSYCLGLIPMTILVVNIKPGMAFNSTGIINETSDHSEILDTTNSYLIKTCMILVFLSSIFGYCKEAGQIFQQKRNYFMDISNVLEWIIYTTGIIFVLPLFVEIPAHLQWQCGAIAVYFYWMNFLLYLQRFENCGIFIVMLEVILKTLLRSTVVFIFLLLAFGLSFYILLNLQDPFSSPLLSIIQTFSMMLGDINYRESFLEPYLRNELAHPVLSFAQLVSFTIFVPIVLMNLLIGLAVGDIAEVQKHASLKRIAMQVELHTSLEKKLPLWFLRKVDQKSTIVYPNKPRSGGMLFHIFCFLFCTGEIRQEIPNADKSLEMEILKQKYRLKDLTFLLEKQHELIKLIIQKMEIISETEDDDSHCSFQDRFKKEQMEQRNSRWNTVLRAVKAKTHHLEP

`Cc1cc(Cn2c(=O)c3c(ncn3[C@@H](C)C(=O)Nc3ccnc(-c4cnc(N5CCC[C@H]5C(F)(F)F)nc4)n3)n(C)c2=O)no1` [Compound 114, (S)-2-(3-methyl-1-((5-methylisoxazol-3-yl)methyl)-2,6-dioxo-2,3-dihydro-1H-purin-7(6H)-yl)-N-(2′-((S)-2-(trifluoromethyl)pyrrolidin-1-yl)-[2,5′-bipyrimidin]-4-yl)propanamide]: the IC50 was 2 nM.
Consider `CCC(=O)Cn1c(=O)c2c(ncn2[C@@H](C)C(=O)Nc2cncc(-c3ccc(N4CC5CC5C4)nc3)n2)n(C)c1=O` (stereo partly drawn) [Compound 42, (2S)—N-(6-(6-(3-azabicyclo[3.1.0]hexan-3-yl)pyridin-3-yl)pyrazin-2-yl)-2-(3-methyl-2,6-dioxo-1-(2-oxobutyl)-2,3-dihydro-1H-purin-7(6H)-yl)propanamide], for which the half-maximal inhibitory concentration (IC50) was determined as 4 nM.
The value for `COCC(=O)Cn1c(=O)c2c(ncn2[C@@H](C)C(=O)Nc2cccc(-c3ccc(N4CC5C(C4)C5(F)F)nc3)n2)n(C)c1=O` (stereo partly drawn) [Compound 258, (2S)—N-(6′-(6,6-difluoro-3-azabicyclo[3.1.0]hexan-3-yl)-[2,3′-bipyridin]-6-yl)-2-(1-(3-methoxy-2-oxopropyl)-3-methyl-2,6-dioxo-2,3-dihydro-1H-purin-7(6H)-yl)propanamide] was 7 nM.
For the compound `CC(=O)Cn1c(=O)c2c(nc(C)n2CC(=O)Nc2cccc(-c3cnc(C(F)(F)F)nc3)n2)n(C)c1=O` [Compound 194, 2-(3,8-dimethyl-2,6-dioxo-1-(2-oxopropyl)-1,2,3,6-tetrahydropurin-7-yl)-N-(6-(2-(trifluo-romethyl)pyrimidin-5-yl)pyridin-2-yl)acetamide], the IC50 was found to be 62 nM.
The same measure for `Cc1nc2c(c(=O)n(Cc3ccccn3)c(=O)n2C)n1CC(=O)Nc1cccc(-c2ccc(F)c(F)c2)n1` [Compound 175, N-(6-(3,4-difluorophenyl)pyridin-2-yl)-2-(3,8-dimethyl-2,6-dioxo-1-(pyridin-2-ylmethyl)-2,3-dihydro-1H-purin-7(6H)-yl)acetamide]: 54 nM; for `CCC(=O)Cn1c(=O)c2c(ncn2[C@@H](C)C(=O)Nc2cccc(-c3ccc(N4CC5CC5C4)nc3)n2)n(C)c1=O` (stereo partly drawn) [Compound 37, (2S)—N-(6′-(3-azabicyclo[3.1.0]hexan-3-yl)-2,3′-bipyridin-6-yl)-2-(3-methyl-2,6-dioxo-1-(2-oxobutyl)-2,3-dihydro-1H-purin-7(6H)-yl)propanamide]: 3 nM.
For `Cc1cc(Cn2c(=O)c3c(ncn3CC(=O)Nc3ccc(Br)c(C(F)(F)F)n3)n(C)c2=O)no1` [Compound 200, N-(5-bromo-6-(trifluoromethyl)pyridin-2-yl)-2-(3-methyl-1-((5-methyl-isoxazol-3-yl)methyl)-2,6-dioxo-2,3-dihydro-1H-purin-7(6H)-yl)acetamide], the IC50 came out at 34 nM.
On to `Cc1cc(Cn2c(=O)c3c(ncn3[C@@H](C)C(=O)Nc3cccc(-c4cnc(C(F)(F)F)c(C)c4)n3)n(C)c2=O)no1` [Compound 129, (S)-2-(3-methyl-1-((5-methylisoxazol-3-yl)methyl)-2,6-dioxo-2,3-dihydro-1H-purin-7(6H)-yl)-N-(5′-methyl-6′-(trifluoromethyl)-[2,3′-bipyridin]-6-yl)propanamide], for which the half-inhibitory concentration (IC50) was 2 nM.
In the case of `CCC(=O)Cn1c(=O)c2c(ncn2[C@@H](C)C(=O)Nc2cccc(-c3ccc(N4CC5C(C4)C5(F)F)nc3)n2)n(C)c1=O` (stereo partly drawn) [Compound 68, (2S)—N-(6′-(6,6-difluoro-3-azabicyclo[3.1.0]hexan-3-yl)-[2,3′-bipyridin]-6-yl)-2-(3-methyl-2,6-dioxo-1-(2-oxobutyl)-2,3-dihydro-1H-purin-7(6H)-yl)propanamide], the 50% inhibitory concentration (IC50) came out at 5 nM.
The same measure for `Cc1cc(Cn2c(=O)c3c(ncn3[C@@H](C)C(=O)Nc3csc(-c4cnc(C)c(F)c4)n3)n(C)c2=O)no1` [Compound 100, (S)—N-(2-(5-fluoro-6-methylpyridin-3-yl)thiazol-4-yl)-2-(3-methyl-1-((5-methylisoxazol-3-yl)methyl)-2,6-dioxo-2,3-dihydro-1H-purin-7(6H)-yl)propanamide]: 8 nM; for `COCC(=O)Cn1c(=O)c2c(ncn2CC(=O)Nc2csc(-c3cnc(C)c(C(F)(F)F)c3)n2)n(C)c1=O` [Compound 254, 2-(1-(3-methoxy-2-oxopropyl)-3-methyl-2,6-dioxo-2,3-dihydro-1H-purin-7(6H)-yl)-N-(2-(6-methyl-5-(trifluoromethyl)pyridin-3-yl)thiazol-4-yl)acetamide]: 14 nM.
The value for `C[C@@H](C(=O)Nc1cccc(-c2cnc(C(F)(F)F)nc2)n1)n1cnc2c1c(=O)n(Cc1ccccn1)c(=O)n2C` [Compound 5, (S)-2-(3-methyl-2,6-dioxo-1-(pyridin-2-ylmethyl)-2,3-dihydro-1H-purin-7(6H)-yl)-N-(6-(2-(trifluoromethyl)pyrimidin-5-yl)pyridin-2-yl)propanamide] was 39 nM; that for `Cc1nc(Cn2c(=O)c3c(ncn3CC(=O)Nc3cccc(-c4cnc(C(F)(F)F)c(C)c4)n3)n(C)c2=O)no1` [Compound 223, 2-(3-methyl-1-((5-methyl-1,2,4-oxadiazol-3-yl)methyl)-2,6-dioxo-2,3-dihydro-1H-purin-7(6H)-yl)-N-(5′-methyl-6′-(trifluoromethyl)-[2,3′-bipyridin]-6-yl)acetamide] was 25 nM.
As for `C[C@@H](C(=O)Nc1cncc(-c2cnc(N3CC4CC4C3)nc2)n1)n1cnc2c1c(=O)n(CC#N)c(=O)n2C` (stereo partly shown) [Compound 12], the 50% inhibitory concentration (IC50) turned out to be 7 nM.
For `Cc1cc(Cn2c(=O)c3c(ncn3CC(=O)Nc3csc(-c4cnc(C)c(C(F)(F)F)c4)n3)n(C)c2=O)no1` [Compound 246, 2-(3-methyl-1-((5-methylisoxazol-3-yl)methyl)-2,6-dioxo-2,3-dihydro-1H-purin-7(6H)-yl)-N-(2-(6-methyl-5-(trifluoromethyl)pyridin-3-yl)thiazol-4-yl)acetamide], the IC50 came out at 1 nM.
The same measure for `CC(=O)Cn1c(=O)c2c(ncn2[C@@H](C)C(=O)Nc2csc(-c3ccc(Cl)c(Cl)c3)n2)n(C)c1=O` [Compound 20, (S)—N-(2-(3,4-dichlorophenyl)thiazol-4-yl)-2-(3-methyl-2,6-dioxo-1-(2-oxopropyl)-2,3-dihydro-1H-purin-7(6H)-yl)propanamide]: 2 nM; for `Cc1cc(Cn2c(=O)c3c(ncn3CC(=O)Nc3cccc(-c4cnc(C)c(F)c4)n3)n(C)c2=O)no1` [Compound 228, N-(5′-fluoro-6′-methyl-[2,3′-bipyridin]-6-yl)-2-(3-methyl-1-((5-methylisoxazol-3-yl)methyl)-2,6-dioxo-2,3-dihydro-1H-purin-7(6H)-yl)acetamide]: 17 nM.
`CCOc1ncc(-c2cccc(NC(=O)[C@H](C)n3cnc4c3c(=O)n(CC(=O)CC)c(=O)n4C)n2)cc1C(F)(F)F` [Compound 125, (S)—N-(6′-ethoxy-5′-(trifluoromethyl)-[2,3′-bipyridin]-6-yl)-2-(3-methyl-2,6-dioxo-1-(2-oxobutyl)-2,3-dihydro-1H-purin-7(6H)-yl)propanamide]: the IC50 is 1 nM.
`CCC(=O)Cn1c(=O)c2c(ncn2[C@@H](C)C(=O)Nc2cccc(-c3cnc(N4CC5C(C4)C5(F)F)nc3)n2)n(C)c1=O` (stereo partly drawn) [Compound 26, (2S)—N-(6-(2-(6,6-difluoro-3-azabicyclo[3.1.0]hexan-3-yl)pyrimidin-5-yl)pyridin-2-yl)-2-(3-methyl-2,6-dioxo-1-(2-oxobutyl)-2,3-dihydro-1H-purin-7(6H)-yl)propanamide]: the half-inhibitory concentration (IC50) was determined as 1 nM.
